Data as given in patent US9376391B2, “Difluoromethyl-nicotinic-tetrahydronaphthyl carboxamides as fungicides” (BAYER CROPSCIENCE AKTIENGESELLSCHAFT, priority 2012, dated 2016).

What was measured:
Septoria tritici = assay: In vivo preventive test on Septoria tritici (leaf spot on wheat); conditions: preventive spray, wheat plants, grading 24 days after contamination
Experimental: In Vivo Preventive Test on Septoria tritici (Leaf Spot on Wheat)
(§1) The active ingredients tested are prepared by homogenization in a mixture of acetone/tween/DMSO, and then diluted with water to obtain the desired active material concentration.
Wheat plants (“Scipion” variety), sown in starter cups on a 50/50 peat soil-pozzolana substrate and grown at 22° C., are treated at the 1-leaf stage (10 cm height) by spraying with the active ingredient prepared as described above. Plants, used as controls, are treated with the mixture of acetone/tween/DMSO/water not containing the active material.
After 24 hours, the plants are contaminated by spraying the leaves with an aqueous suspension of cryopreserved Septoria tritici spores (500 000 spores per ml). The contaminated wheat plants are incubated for 72 hours at 18° C. and at 100% relative humidity, and then for 21 days at 90% relative humidity.
Grading (% of efficacy) is carried out 24 days after the contamination, in comparison with the control plants.

Puccinia recondita = assay: In vivo preventive test on Puccinia recondita (brown rust on wheat); conditions: wheat, spray, graded 12 days after contamination vs control plants
Experimental: In Vivo Preventive Test on Puccinia recondita (Brown Rust on Wheat) […] Wheat plants (“Scipion” variety), sown in starter cups on a 50/50 peat soil-pozzolana substrate and grown at 22° C., are treated at the 1-leaf stage (10 cm height) by spraying with the active ingredient prepared as described above. Plants, used as controls, are treated with the mixture of acetone/tween/DMSO/water not containing the active material. After 24 hours, the plants are contaminated by spraying the leaves with an aqueous suspension of Puccinia recondita spores (100 000 spores per ml). The spores are collected from an infected plant and are suspended in water containing 2.5 ml/1 of Tween 80 at 10%. The contaminated wheat plants are incubated for 24 hours at 20° C. and at 100% relative humidity, and then for 10 days at 20° C. and at 70-80% relative humidity. Grading (% of efficacy) is carried out 12 days after the contamination, in comparison with the control plants.

Sphaerotheca fuliginea = assay: In vivo preventive test on Sphaerotheca fuliginea (powdery mildew on cucurbits); conditions: preventive spray, gherkin plants, grading 12 days after contamination
Experimental: In Vivo Preventive Test on Sphaerotheca fuliginea (Powdery Mildew on Cucurbits)
(§2) The active ingredients tested are prepared by homogenization in a mixture of acetone/tween/DMSO and then diluted with water to obtain the desired active material concentration.
(§3) Gherkin plants (“Vert petit de Paris” variety), sown in starter cups on a 50/50 peat soil-pozzolana substrate and grown at 24° C., are treated at the Z11 cotyledon stage by spraying with the active ingredient prepared as described above. Plants, used as controls, are treated with the mixture of acetone/tween/DMSO/water not containing the active material.
After 24 hours, the plants are contaminated by spraying the cotyledons with an aqueous suspension of Sphaerotheca fuliginea spores (100 000 spores per ml). The spores are collected from infected plants. The contaminated gherkin plants are incubated at about 20° C. and at 70-80% relative humidity.
Grading (% of efficacy) is carried out 12 days after the contamination, in comparison with the control plants.

Uromyces appendiculatus = assay: In vivo preventive test on Uromyces appendiculatus (bean rust); conditions: preventive spray, bean plants, grading 11 days after contamination
Experimental: In Vivo Preventive Test on Uromyces appendiculatus (Bean Rust) […] Bean plants (“Saxa” variety), sown in starter cups on a 50/50 peat soil-pozzolana substrate and grown at 24° C., are treated at the 2-leaf stage (9 cm height) by spraying with the active ingredient prepared as described above. Plants, used as controls, are treated with the mixture of acetone/tween/DMSO/water not containing the active material. After 24 hours, the plants are contaminated by spraying the leaves with an aqueous suspension of Uromyces appendiculatus spores (150 000 spores per ml). The spores are collected from infected plants and are suspended in water containing 2.5 ml/1 of Tween 80 at 10%. The contaminated bean plants are incubated for 24 hours at 20° C. and at 100% relative humidity, and then for 10 days at 20° C. and at 70-80% relative humidity. Grading (% of efficacy) is carried out 11 days after the contamination, in comparison with the control plants.

Botrytis cinerea = assay: In vivo preventive test on Botrytis cinerea (grey mould), gherkin plants; conditions: gherkin, spray, graded 4 to 5 days after contamination vs control plants
Experimental: In Vivo Preventive Test on Botrytis cinerea (Grey Mould)
as §2, §3
After 24 hours, the plants are contaminated by spraying the cotyledons with an aqueous suspension of cryopreserved Botrytis cinerea spores (50 000 spores per ml). The spores are suspended in a nutrient solution composed of 10 g/L of PDB, 50 g/L of D-Fructose, 2 g/L of NH4NO3 and 1 g/L of KH2PO4. The contaminated gherkin plants are incubated at 17° C. and at 90% relative humidity.
Grading (% of efficacy) is carried out 4 to 5 days after the contamination, in comparison with the control plants.

[1] = log P by HPLC on reversed phase columns (EEC directive 79/831 Annex V.A8); format: physicochemical; conditions: Table 1, formula (I), HPLC/LC-MS at pH 2.7, 0.1% formic acid in water / acetonitrile, gradient 10% to 95%; for chromatographic logP: reversed phase HPLC columns
Alternaria brassicae = assay: In vivo preventive test on Alternaria brassicae (leaf spot on radish); conditions: spray, graded 6 days after contamination vs control plants
Experimental: In Vivo Preventive Test on Alternaria brassicae (Leaf Spot on Radish)
as §1
Radish plants (“Pernod Clair” variety), sown in starter cups on a 50/50 peat soil-pozzolana substrate and grown at 17° C., are treated at the cotyledon stage by spraying with the active ingredient prepared as described above. Plants, used as controls, are treated with the mixture of acetone/tween/DMSO/water not containing the active material.
After 24 hours, the plants are contaminated by spraying the cotyledons with an aqueous suspension of Alternaria brassicae spores (50 000 spores per ml). The spores are collected from a 15-day-old culture. The contaminated radish plants are incubated at 20° C. and at 100% relative humidity.
Grading (% of efficacy) is carried out 6 days after the contamination, in comparison with the control plants.

Structure (SMILES)	logP^[a] [1]	Eff. % (Septoria tritici; 500 ppm) [%]	Eff. % (Puccinia recondita; dose 500 ppm) [%]	Eff. % (Puccinia recondita; dose 100 ppm) [%]	Eff. % (Uromyces appendiculatus; 500 ppm) [%]	further results
CON=C1c2cccc(NC(=O)c3cccnc3C(F)F)c2CC1(C)C (mixture of isomers) [Example 34]		100	93			Eff. % (Sphaerotheca fuliginea; 500 ppm): 100%
CON=C1CC(C)c2c(NC(=O)c3cccnc3C(F)F)cccc21 (racemic) [Example 30]	2.32^[a]	88	86		98	
CCCCON=C1CCc2c(NC(=O)c3cccnc3C(F)F)cccc21 [Example 6]	3.44^[a]					Eff. % (Alternaria brassicae; dose 500 ppm): 71%
CCCON=C1CCc2c(NC(=O)c3cccnc3C(F)F)cccc21 [Example 7]	3.00^[a]				71	Eff. % (Alternaria brassicae; dose 500 ppm): 79%
CC1CC(C)(C)c2c(C3CC3)ccc(NC(=O)c3cccnc3C(F)F)c21 (stereo not drawn) [Example 10]	3.79^[a]		100		99	Eff. % (Botrytis cinerea; dose 500 ppm): 100%
CC1OC(C)(C)c2c(Br)ccc(NC(=O)c3cccnc3C(F)F)c21 (stereo not drawn) [Example 15]	2.89^[a]	83	86		81	
O=C(Nc1cccc2c1CCC21CC1)c1cccnc1C(F)F [Example 20]	2.78^[a]		94		100	Eff. % (Botrytis cinerea; dose 500 ppm): 90%
CCC1Cc2c(NC(=O)c3cc(C)cnc3C(F)F)cccc2C1(C)C (stereo not drawn) [Example 38, 2-(difluoromethyl)-N-(2-ethyl-1,1-dimethyl-2,3-dihydro-1H-inden-4-yl)-5-methylnicotinamide]			94		100	Eff. % (Alternaria brassicae; dose 500 ppm): 80%; chromatographic logP [1]: 4.06
CC1OC(C)(C)c2cccc(NC(=O)c3c(C(F)F)ccnc3C(F)F)c21 (stereo not drawn) [Example 40]	2.66^[a]	71	81		100	
CC1(C)Cc2cccc(NC(=O)c3ccc(Cl)nc3C(F)F)c2C1 [Example 47]	3.76^[a]	71	72			
CC1(C)Cc2cccc(NC(=O)c3cccnc3C(F)F)c2C1 [Example 49]	3.06^[a]	86	100		100	Eff. % (Sphaerotheca fuliginea; 500 ppm): 100%; Eff. % (Alternaria brassicae; dose 500 ppm): 89%
CC1CC(CC(C)(C)C)c2cccc(NC(=S)c3cccnc3C(F)F)c21 (stereo not drawn) [Example 59]	4.87^[a]	75	98		100	Eff. % (Sphaerotheca fuliginea; 500 ppm): 98%; Eff. % (Alternaria brassicae; dose 500 ppm): 88%
CC1c2cccc(NC(=O)c3cccnc3C(F)F)c2CC1(C)C (stereo not drawn) [Example 62]	3.35^[a]	100	100		100	Eff. % (Sphaerotheca fuliginea; 500 ppm): 98%; Eff. % (Alternaria brassicae; dose 500 ppm): 100%
CC1c2cccc(NC(=O)c3ccc(Cl)nc3C(F)F)c2CC1(C)C (stereo not drawn) [Example 64]	4.04^[a]		98		84	Eff. % (Sphaerotheca fuliginea; 500 ppm): 94%
CCC1Cc2c(NC(=S)c3cc(C)cnc3C(F)F)cccc2C1(C)C (stereo not drawn) [Example 70, 2-(difluoromethyl)-N-(2-ethyl-1,1-dimethyl-2,3-dihydro-1H-inden-4-yl)-5-methylpyridine-3-carbothioamide]				98		Eff. % (Uromyces appendiculatus; 100 ppm): 100%; chromatographic logP [1]: 4.41
CC1c2c(cccc2NC(=O)c2cccnc2C(F)F)CC1(C)C (stereo not drawn) [Example 85]	3.29^[a]			97		Eff. % (Septoria tritici; 100 ppm): 79%; Eff. % (Sphaerotheca fuliginea; 100 ppm): 100%; Eff. % (Botrytis cinerea; dose 100 ppm): 98%
CCC1CC(C)c2c(NC(=O)c3cccnc3C(F)F)cccc21 (stereo not drawn) [Example 88]	3.37^[a]			88		Eff. % (Botrytis cinerea; dose 100 ppm): 89%

Further lines, with some results ahead:

logP^[a] [1]	Structure (SMILES)	Eff. % (Septoria tritici; 500 ppm) [%]	Eff. % (Puccinia recondita; dose 500 ppm) [%]	Eff. % (Puccinia recondita; dose 100 ppm) [%]	Eff. % (Uromyces appendiculatus; 500 ppm) [%]	further results
3.94^[a]	CCC1(C)CC(C)c2c(NC(=O)c3cc(C)cnc3C(F)F)cccc21 (mixture of isomers) [Example 82]			94		Eff. % (Uromyces appendiculatus; 100 ppm): 88%; Eff. % (Botrytis cinerea; dose 100 ppm): 80%
2.86^[a]	CCC1(CC)OC(C)c2c(NC(=O)c3cccnc3C(F)F)cccc21 (racemic) [Example 25]	86	98		100	Eff. % (Botrytis cinerea; dose 500 ppm): 96%
4.11^[a]	CCC1(CC)Cc2c(NC(=O)c3cccnc3C(F)F)cccc2C1C (racemic) [Example 60]	100	98		100	Eff. % (Sphaerotheca fuliginea; 500 ppm): 100%; Eff. % (Alternaria brassicae; dose 500 ppm): 100%
2.39^[a]	CCC1OC(C)(C)c2cccc(NC(=O)c3cccnc3C(F)F)c21 (racemic) [Example 77]			98		Eff. % (Uromyces appendiculatus; 100 ppm): 100%; Eff. % (Septoria tritici; 100 ppm): 93%; Eff. % (Sphaerotheca fuliginea; 100 ppm): 98%; Eff. % (Alternaria brassicae; dose 100 ppm): 75%
4.31^[a]	CCC1(CC)CC(C)c2c(NC(=O)c3cc(C)cnc3C(F)F)cccc21 (racemic) [Example 79]			89		Eff. % (Botrytis cinerea; dose 100 ppm): 80%
4.72^[a]	CCC1(CC)CC(C)c2c(NC(=O)c3ccc(Cl)nc3C(F)F)cccc21 (racemic) [Example 80]			94		Eff. % (Uromyces appendiculatus; 100 ppm): 91%; Eff. % (Botrytis cinerea; dose 100 ppm): 70%
3.41^[a]	Cc1ccc(NC(=O)c2cccnc2C(F)F)c2c1C(C)(C)CC2C (stereo not drawn) [Example 11]		98			Eff. % (Botrytis cinerea; dose 500 ppm): 99%
3.64^[a]	Cc1cnc(C(F)F)c(C(=O)Nc2ccc(F)c3c2C(C)CC3(C)C)c1 (stereo not drawn) [Example 23]	71	94		93	Eff. % (Sphaerotheca fuliginea; 500 ppm): 94%
3.99^[a]	CCC1(CC)c2cccc(NC(=O)c3cccnc3C(F)F)c2CC1C (stereo not drawn) [Example 91]			94		Eff. % (Uromyces appendiculatus; 100 ppm): 100%; Eff. % (Sphaerotheca fuliginea; 100 ppm): 98%
